Results reported in a melting point compilation (Tetko et al.; mined from patent text by program, amines drawn as free bases though some values may be those of a salt).

melting point [°C]	SMILES
244 to 245	COc1ccc(NC(C)=O)c(OC)c1-c1ccc(C[C@H](NC(=O)c2c(Cl)cccc2Cl)C(=O)O)cc1
170	Oc1ccc(N2CCN(c3nccs3)CC2)cc1
109 to 110	CCSC(F)(F)C(O)(Cn1cncn1)c1ccc(F)cc1F (configuration not stated)
74 to 77	COc1cccc(C(=O)C=Cc2cccc(O)c2)c1
109 to 111	COCc1nnc(SCC(=O)C23CC4CC(CC(C4)C2)C3)n1C
85.8	C=C(C)C(=O)NCCCNC(=O)OC(C)(C)C
67 to 69.5	COc1ccc(C2(C)CNC(=O)O2)cc1OC(C)C (configuration not stated)
180 to 181	COc1ccc(S(=O)(=O)N2CCc3cccc(-c4ccc(F)c(F)c4)c32)cc1
120 to 121	CC(C)(C)OC(=O)NC(CC(O)CNC(Cc1ccccc1)C(O)CNC(=O)OCc1ccccc1)c1ccccc1 (configuration not stated)
88	CC1CCCCN1C(=O)COc1nc(C(Cl)(Cl)Cl)ns1 (configuration not stated)
167 to 168	CN(c1ccccc1)c1nc(Cl)nc2sccc12
190 to 192	O=C(CCCN1CCC(c2ccccc2)CC1)c1ccc2c(c1)Cc1cc(C(=O)CCCN3CCC(c4ccccc4)CC3)ccc1-2
120	COc1ccc(C(=O)c2cc(-c3ccc(Cl)cc3)c(N3CCOCC3)s2)cc1
164	Cc1c(-c2cnccn2)ssc1=S
116 to 117	CCOC(=NC(=O)c1ccc(Br)cc1)N1Cc2ccccc2-c2ccccc2C1
202	O=C1CC(=CN2CCOCC2)Oc2c(O)cccc21
208 to 209	COc1ccc2nc(NC(=O)CO)sc2c1
70 to 71	Cc1ccc2cccc(OCC(=O)c3ccccc3)c2n1
130 to 140	CCCCc1nc(CO)c(C(=O)O)n1Cc1ccc(-c2ccccc2C(=O)O)cc1
184 to 186	c1ccc2c(c1)CCN(Cc1nc3ccccc3[nH]1)C2
130 to 131	COc1c(OS(C)(=O)=O)ccc2[nH]ncc12
99 to 100	Cc1oc(-c2ccccc2)nc1CCOc1ccc(CCCO)cc1
178	Oc1ccc2c(c1)CCCC(c1ccccc1)=C2c1ccc(OCCCCCSCc2cccs2)cc1
118 to 121	CCc1nc2c(cnn2CC)c(NC2CCOCC2)c1CNC(=O)c1cccc(C(=O)NCc2ccc(OC)c(-c3cccc(C=O)c3)c2)c1
130	Cc1ccc(S(=O)(=O)N2CCCC2c2ccc(C)cc2C)cc1 (racemic)
321 to 324	O=C1N=C(N2CCCCCC2)SC1=Cc1cccc(-c2ccc(O)c(C34CC5CC(CC(C5)C3)C4)c2)c1

melting point [°C]	SMILES
247	N#Cc1cccc(C2=Nc3ccc(-c4cc(F)ccc4F)cc3NC(=O)C2)c1
183 to 186	CN1C(=O)CC[C@]2(C)c3ccc(-c4nc5ccccc5[nH]4)cc3CC[C@@H]12
65 to 67	N#Cc1cc(-n2nnnc2C(F)(F)F)ccc1OC(F)(F)F
141 to 142	CC(=Cc1c2n(c3ccncc13)CCC2)[N+](=O)[O-]
207 to 209	CSC1=C([N+](=O)[O-])CCN1
111 to 115	CCCn1c(=O)c2c(Cl)cc(Cl)cc2n(Cc2ccccc2)c1=O
105 to 109	CCOC(=O)C1CN(c2cc3ccccc3c(=O)[nH]2)CCN1C (configuration not stated)
297 to 303	Cn1cc(C2=C(c3c4n(c5ccccc35)CCC(CNC(=O)c3ccccc3)C4)C(=O)NC2=O)c2ccccc21 (configuration not stated)
99 to 100	CC1(C)CCC(OC2=C(c3ccc(S(C)(=O)=O)cc3)C(C)(C)OC2=O)C1 (configuration not stated)
143 to 144	CCC(C(=O)Nc1ccc2cc[nH]c2c1)c1ccccc1 (configuration not stated)
91 to 92	O=C1[C@H]2CCCC[C@H]2C(=O)N1Cc1ccncc1
98 to 101	Clc1ccc2oc(SCCN3CCC(OC(c4ccccc4)c4ccccc4)CC3)nc2c1
244 to 245	CCCc1[nH]c2cc(C(=O)O)ccc2c1C(=O)C1CCC1
80 to 82	COC(=O)c1ccccc1N(C)C(=O)CBr
137 to 139	c1cc(-n2cccc2)cc(-n2cnc3cc(-c4ccco4)ccc32)c1
164 to 166	COc1ccccc1C(=O)Nc1nc2c(s1)CN(C)CC2
135	N#CCCn1nc(-c2ccc(OCc3ccccc3)cc2)sc1=O
72 to 73	C(=CCN(CC1CCCCC1)CC1CCCCC1)CN(CC1CCCCC1)CC1CCCCC1
221 to 224	CC1(C)CC(Oc2ccc(O)nn2)c2cc(C#N)ccc2O1 (configuration not stated)
> 250	Cn1c(-c2c(Cl)cccc2Cl)nc2cc(C(=O)O)ccc21
214 to 215	Cc1nc(N)c([N+](=O)[O-])cc1Cl
151 to 152	CC1(C)CSCC(=O)N1
91 to 93.5	COc1cccc2c(CBr)coc12
118 to 120	CC1(c2ccc(F)cc2)CN(Cc2ccc(COc3cccc4c3CN(C3CCC(=O)NC3=O)C4=O)cc2)CCO1 (configuration not stated)
118 to 120	CCOC(=O)C1[C@@H]2[C@@H](O)[C@@H]3O[C@H](c4ccc(OC)cc4)OC[C@H]3O[C@H]12 (some centres not stated)
180 to 183	COc1ccc(CNC(=O)c2cc3c(=O)n(CC#N)c(=O)n(C)c3s2)cc1

Further lines, the compound ahead of its results:

SMILES	melting point [°C]
CCOC(=O)C(C(=O)Nc1nccs1)C(=O)c1cccc(C(F)(F)F)c1NC(=O)C(Cl)C(C)(C)C (configuration not stated)	180
C=CCOc1ccc2ccc(O)cc2c1	78 to 80
COC(=O)C1=Cc2cc(-c3ccc(OC(F)(F)F)cc3)ccc2S(=O)(=O)CC1	142 to 143
CCOP(=O)(OCC)c1ccc(/C=C(\C)c2ccc3c(c2)C(C)(C)CCC3(C)C)cc1	72.5 to 73.5
O=C(NCN1CCCCC1)Nc1ccc(-c2cnc(CSCCOc3ccccc3)o2)cc1	84 to 87
OC(Cn1cncn1)(c1ccc(Oc2ccc(Cl)cc2)cc1Cl)C1CC1 (configuration not stated)	170
COc1ccnc(CCc2nc3cc(-c4ccc(S(=O)(=O)N(C)C)cc4)cnc3[nH]2)c1	217 to 218
N#Cc1ccc(C=O)cc1F	83
Cc1nc(COc2ccc(C[C@@H](C)[C@@H](C)Cc3ccc(OCc4csc(C)n4)c(OCc4csc(C)n4)c3)cc2OCc2csc(C)n2)cs1	85 to 87
O=C(c1ccccc1Cl)c1c(O)nn(-c2c(Cl)cc(Cl)cc2Cl)c1N1C(=O)c2ccccc2C1=O	245 to 246
CN(Cc1cccc(-c2ccc(CC3SC(=O)NC3=O)cc2)c1)C(=O)c1cc(Cl)cc(Cl)c1 (configuration not stated)	106
CNC(=O)C1=C(C)OC(C)=C(C(=O)NC)C1c1ccc(Cl)cc1	256 to 259
CCNc1ccc(-n2c(C(F)(F)F)nn(C)c2=S)c(Cl)c1	87 to 90
C=C1c2c(C)c(N3CCN(c4ccc(OC)cc4)CC3)c(C)c(C)c2OC1(C)C	134 to 136
O=c1cc(-c2cccc(F)c2)oc2ccc(OCCCCCCN3CCC(O)CC3)cc12	136 to 137
COC(=O)Cn1c(C(=O)NC(N)=S)cc2cc(C)ccc21	222 to 224
C#CCOc1cc(Cl)cc(Cl)c1OCC#C	61 to 63
Clc1ccccc1Oc1ncc2c(-c3cccs3)n[nH]c2n1	221 to 223
CC(=O)Nc1ccc(N=O)cc1	179 to 180
OCC(CBr)(CBr)CBr	67 to 69
C=CCOc1cc2c(c(Cl)c1Cl)C(=O)C(C)(c1ccccc1)C2 (configuration not stated)	105
NC(=O)C(Nc1cccc2c1C(=O)CO2)c1c(Cl)cccc1Cl (configuration not stated)	245
COc1ccc(CCN)cc1OCCC(c1ccccc1)(c1ccccc1)c1ccccc1	111 to 112
CCCCCCc1ccc2c(c1)NC(NC(C)C)=NS2(=O)=O	319 to 321
O=C(CCC1CCCCCCCCCCC1=O)C1=C(O)CSC1=O (configuration not stated)	93 to 95

SMILES	melting point [°C]
Nn1c(C(F)(F)F)cc(=O)n(-c2cc([N+](=O)[O-])c(Br)cc2F)c1=O	165
COc1cc(NC(=S)Nc2ccccc2)ccc1NNC=O	183 to 184
COc1nc(C(F)(F)F)c(F)c(=O)n1-c1cc(OC(C)C)c(Cl)cc1F	144 to 146
Nc1nc2c(ncn2COCCOC(=O)CCC(=O)O)c(=O)[nH]1	203 to 207
O=C(NCc1cccnc1)c1ccc2n1Cc1ccccc1N(C(=O)c1ccc(-c3ccccc3CN3CCCCC3)cc1)C2	199 to 202
COc1c(Br)csc1C(=O)O	191 to 192
COC(=O)c1cccc(-c2c(C)c(C(=O)c3ccc4nc(C)[nH]c(=O)c4c3)n3ccccc23)c1	232
Cc1[nH]c(=O)[nH]c1C(=O)c1ccc(N2CCCCC2)cc1	260 to 263
CCON=C(c1ccccc1COc1ccccc1)n1cncn1	78.5 to 80.5
Cc1c(CC(=O)O)oc2ccccc12	108
CN1OCCN(c2ccc(Cl)cc2Cl)C1=O	94 to 95
O=C(CNC(=O)c1ccc(Cl)cc1)c1ccsc1	160 to 161
CCN(CC)C(=O)C=C1C=C(C(C)(C)C)C(=O)C(C(C)(C)C)=C1	109 to 110
COc1ccc(C=CC(=O)N2CCOCC2)cc1C(F)F	119
CCCCC(=NCC(=O)OCC)c1cc(Cl)ccc1N	96 to 97
N=C(NCc1c(F)cccc1F)NN=Cc1c(Cl)cccc1Cl	168 to 170
COc1cc2nc(N3CCN(C(=O)C4=CCCC4)CC3)nc(N)c2cc1OC	256 to 258
CC1(C)N=C(S)N=C(N)N1	186 to 188
Cc1cc(C)cc(-c2cn(C)cc(-c3cccc(C(F)(F)F)c3)c2=O)c1	160 to 163
O=S(=O)(Nc1ccc(Cl)nc1I)c1ccccc1	132
CCOC(=O)Cn1ncc(-c2ccccc2)c1-c1ccccc1	79 to 81
Cn1cc(C(=S)NCc2ccc(Cl)cc2)c(=O)c2cc(I)ccc21	153 to 155
CCOCN1C(C)=C(C(=O)OCC)C(c2cccc([N+](=O)[O-])c2)C(C(=O)OCC)=C1C	125
COc1ccc(S(=O)(=O)N(Cc2cccnc2)c2c(C(=O)O)cc(C)cc2-c2cccs2)cc1	67
CC(C)N1CCC(C2=C(C#N)C(c3cccc4nonc34)c3c[nH]nc3N2)CC1 (configuration not stated)	260
